Assay [1] deals with CD8+ T cells comprising anti-fluorescein CAR. As to the kind of experiment: Stimulation of anti-fluorescein CAR T cells by plate-bound or free FITC conjugate; IL-2, IFN-gamma and CD69 by flow cytometry. The format is cell-based. How it is done: T cells comprising a nucleic acid encoding anti-fluorescein CAR were stimulated on FITC-conjugated-antibody-coated normal (Normal) or high affinity (High affinity) plates or antibody-FITC solution (Free) with increasing doses of FITC (0, 0.1, 1, 10, and 100 μg/mL) in the presence or absence of CD3/CD28 co-stimulation. Expression of IL-2, IFN-gamma and CD69 in CD8^+ T cells were assessed by flow cytometry.

The test system of the next assay is CD4+ T cells. As to the kind of experiment: Memory markers on CD4+ T cells expressing cytokine receptor switches, stimulated on FITC-conjugated-BSA-coated plate, flow cytometry. The format is cell-based, human. The conditions noted are these: with CD3/CD28-costimulation, up to 2 weeks, FIG. 3A. As to the method:
(§1) T cells comprising nucleic acids encoding cytokine receptor switches were stimulated on FITC-conjugated-BSA-coated plate (FIG. 2) with increasing dose of FITC (0, 0.1, 1, 10, 100, and 1000 μg/mL) in the presence or absence of CD3/CD28 co-stimulation for up to 2 weeks. The effector memory (CD45RA^− CCR7^−), central memory (CD45RA^−, CCR7 ^+), and activation (CD69) markers on CD4^+ and CD8^+ T cells were assessed by flow cytometry.
(In general: Flow cytometry measures light scatter and fluorescence of single cells or particles in a stream.)

The subject of the next assay is CD8+ T cells. The assay can be described thus: Memory markers on CD8+ T cells expressing cytokine receptor switches, stimulated on FITC-conjugated-BSA-coated plate, flow cytometry. As to conditions: with CD3/CD28-costimulation. The format is cell-based, human. As to the method:
as §1

On to “BSA-FITC: fluorescein isothiocyanate (FITC) conjugated to bovine serum albumin (BSA)”, for which, in assay [1] (bound on high-affinity plate, FIGS. 5A-5C), the “stimulation of fluorescein-specific BAT-CAR-T cells” value was “efficiently stimulated”.
Regarding fluorescein isothiocyanate [FITC], the “expression of IL-2 in CAR T cells” value in assay [1] (FITC-dose-dependent, 0-100 μg/mL, FIG. 5A) was “increased”. The “expression of IFN-gamma in CAR T cells” value in assay [1] (FITC-dose-dependent, 0-100 μg/mL, FIG. 5B) was “increased”. For the same molecule, the “expression of CD69 in CAR T cells” value in assay [1] (FITC-dose-dependent, 0-100 μg/mL, FIG. 5C) was “increased”.

B1: IL2RA-cytokine receptor switch: IL2RA signal peptide, anti-fluorescein scFv, CD8 hinge, IL2RA transmembrane and intracellular domains; SEQ ID NO: 59 (protein)
chain: MDSYLLMWGLLTFIMVPGCQADVVMTQTPLSLPVSLGDQASISCRSSQSLVHSNGNTYLRWYLQKPGQSPKVLIYKVSNRVSGVPDRFSGSGSGTDFTLKINRVEAEDLGVYFCSQSTHVPWTFGGGTKLEIKSSADDAKKDAAKKDDAKKDDAKKDGGVKLDETGGGLVQPGGAMKLSCVTSGFTFGHYWMNWVRQSPEKGLEWVAQFRNKPYNYETYYSDSVKGRFTISRDDSKSSVYLQMNNLRVEDTGIYYCTGASYGMEYLGQGTSVTVSTTTPAPRPPTPAPTIASQPLSLRPEACRPAAGGAVHTRGLDFACDVAVAGCVFLLISVLLLSGLTWQRRQRKSRRTI
With B1, in the assay on CD4+ T cells, the “effector memory markers (CD45RA- CCR7-) on CD4+ T cells” value is reported as “increased”. Moreover, in the assay on CD8+ T cells (FIG. 3B), the “central memory markers (CD45RA-, CCR7+) on CD8+ T cells” value was “increased”. In addition, the “effector memory markers (CD45RA- CCR7-) on CD8+ T cells” value in the assay with CD8+ T cells (FITC-BSA-coated plate, up to 2 weeks, FIG. 3A) was “increased”.

For the origin of these results see patent US20240408139A1, “ENGINEERED CYTOKINE RECEPTORS FOR TUNABLE ADOPTIVE CELL THERAPY” (Dana-Farber Cancer Institute, Inc., priority 2021, published 2024).
